Results from patent US12728156B2, “Tumor cell-derived exosomes and method of treating colorectal cancer” (REGENTS OF THE UNIVERSITY OF MINNESOTA, priority 2020, dated 2026).

Legend:
CT26 and MC38 tumors = assay: Established tumor model, 5-FU and anti-4-1BB schedules; conditions: monotherapy
CT26 tumors = assay: Mass cytometry immune profiling of treated CT26 tumors; type: in vivo, mice
Description: FIGS. 18A-18I show the tumor immunological response to 5-FU and anti-4-1BB treatments in CT26 tumors. […] PD-L1, Ki-67, CD80, and CD86 expression were quantified in whole tumor tissue. […] See also FIGS. 25-27.
FIGS. 27A-27H show the tumor immunological response to 5-FU and anti-PD-1 treatments in CT26 tumors. Related to FIG. 18.
Tumor samples were collected and digested using standard flow cytometry procedure. A total of 3 million single cells were used for each mass cytometry staining. In brief, the single cell pellets were first incubated with Cell-ID Cisplatin with a final concentration of 5 μM for 5 min at RT to identify dead cells. Cells were then washed and blocked by Fc-receptor blocking solution. Cell membrane staining was then performed with metal-conjugated antibodies for 30 min at RT. After staining, cells were fixed and permeabilized. The intracellular staining antibodies were then added and incubated for 45 min at RT. Finally, cells were labeled with 1 ml 1,000× diluted 125 μM Cell-ID intercalator-Ir to stain all cells in MaxPar Fix and Perm Buffer overnight at 4° C. EQ Four Element Calibration Beads with the reference EQ passport P13H2302 were added to each staining tube right before data acquisition by a CyTOF 2 mass cytometer. The mass cytometry data were then normalized and exported for gating on alive single cells, which were then imported to the Cytobank software. A t-SNE analysis was performed with default parameters (perplexity, 30; iterations, 1,000) on all cell types in tumor samples.

[1] = 5-FU toxicity evaluation (body weight, diarrhea score); type: in vivo, mice; conditions: monotherapy
Method: FIGS. 24A-24D show the side effects of different treatments. Related to FIG. 16. FIGS. 24A-24B show mouse body weight, which was measured on day 12, 24, and 32 during treatment. […] FIGS. 24C-24D show the results of a diarrhea assessment, which was performed at the endpoint of mice follow-up to evaluate the side effects on mouse intestine.
Toxicity is a primary concern for cancer treatments, especially in combination therapy. We took this into account by evaluating the side effects of each treatment.
We recorded animal body weight and diarrhea scores after treatments. Mice were weighed on day 12, 24, and 32 after treatment. The diarrhea score was assessed at the endpoint of each treatment by using a 4-point scoring system: 0=normal stool; 1=slight diarrhea (soft formed stool without perianal staining of the coat); 2=moderate diarrhea (unformed stool with moderate perianal staining of the coat); and 3=severe diarrhea (watery stool with severe perianal staining of the coat) (Song et al., 2013).

T cells = assay: T cell depletion in naïve mice; type: in vivo
Method: FIGS. 23A-23D show the T cell depleting effects of 5-FU and anti-CD3 treatment. Related to FIGS. 14 and 16-18.
We tested the effects of 5-FU treatment and 5-FU and anti-4-1BB combination treatment on T cell depletion in vivo. Intraperitoneal administration of anti-CD3 treatment (clone: 17A2, BioXcell, 5 mg/kg every 3 days) was given to induce T cell depletion in mice. One dose of 5-FU (150 mg/kg) or 5-FU (150 mg/kg) and anti-4-1BB (5 mg/kg) combination treatment was given intraperitoneally in naïve mice. Mice were sampled on days 2, 4, 7, and 9 after treatment for quantifying T cells in lymph nodes, spleen, bone marrow, and blood circulation.

[2] = test system: miR-424 levels in T-cells and DCs; assay: CT26 tumor cells co-cultured with naïve T-cells and DCs, miR-424 level; type: cell-based, mouse; conditions: co-culture with CT26 tumor cells; EV production blocked
Method: miR-424 levels were analyzed across different samples, including tumor cells, immune cells, and EVs (FIG. 3A). To determine whether EVs can be up-taken by T-cells and DCs, CT26-WT cell line-derived EVs were stained with Dio dye and incubated with mouse naïve T-cells and DCs. Images taken using confocal microscopy confirmed the presence of Dio labeled EVs inside the T-cells and DCs (FIG. 3B). Next, CT26 tumor cells were co-cultured with naïve T-cells and DCs, which lead to a significant increase in miR-424 levels in both T-cells and DCs (FIG. 3C). Importantly, this increase in miR-424 could be neutralized by blocking the production of EVs in the co-culture system using GW4869 (FIG. 3C). To determine whether this tumor-derived EVs were being engulfed by the immune cells, CD63-GFP transfected CT26 tumor cells were injected into mice to establish a subcutaneous tumor model. […] Next, we sought to determine whether these effects could be eliminated by knocking out miR-424 in tumors. To this end, T-cells and DCs were isolated from the spleens of healthy mice, and of mice with wild-type tumors or miR-424 knockout (KO) tumors using flow cytometry sorting. miR-424 level was measured in the sorted T-cells and DCs by qPCR. […] Next, to study the impact of EV miR-424 expression on T-cell co-stimulation, the Jurkat cell and Raji cell conjugation assays were used. […]

IL-2 production = assay: Jurkat-Raji conjugation system co-cultured with human CRC derived organoids; type: cell-based; conditions: EVs secretion blocked in the co-culture system
Method: miR-424 levels were analyzed across different samples, including tumor cells, immune cells, and EVs (FIG. 3A). To determine whether EVs can be up-taken by T-cells and DCs, CT26-WT cell line-derived EVs were stained with Dio dye and incubated with mouse naïve T-cells and DCs. Images taken using confocal microscopy confirmed the presence of Dio labeled EVs inside the T-cells and DCs (FIG. 3B). Next, CT26 tumor cells were co-cultured with naïve T-cells and DCs, which lead to a significant increase in miR-424 levels in both T-cells and DCs (FIG. 3C). Importantly, this increase in miR-424 could be neutralized by blocking the production of EVs in the co-culture system using GW4869 (FIG. 3C). To determine whether this tumor-derived EVs were being engulfed by the immune cells, CD63-GFP transfected CT26 tumor cells were injected into mice to establish a subcutaneous tumor model. […] To this end, T-cells and DCs were isolated from the spleens of healthy mice, and of mice with wild-type tumors or miR-424 knockout (KO) tumors using flow cytometry sorting. miR-424 level was measured in the sorted T-cells and DCs by qPCR. […]
The Jurkat-Raji cells conjugation system was used for understanding the impacts of human tumor organoid-derived EVs on co-stimulation as well. […] Concentration of IL-2 was quantified in the co-culture system.

Row | SMILES | tumor growth and survival time (CT26 and MC38 tumors) | frequency of MDSCs (CT26 tumors; 5-FU monotherapy and combination treatment) | CD80 expression and MDSCs in tumor tissue (CT26 tumors; 5-FU treatment) | T-cell population in the tumor microenvironment (CT26 tumors; 5-FU treatment) | side effects [1] | T cell depletion (T cells) | time to recovery of the T cell population (T cells; after 5-FU treatment) | increase in miR-424 levels in T-cells and DCs [2] | suppression of IL-2 production by organoids (IL-2 production)
1 | O=c1[nH]cc(F)c(=O)[nH]1 [5-FU, 5-fluorouracil] | delayed tumor development | decreased | upregulated CD80 expression and depleted MDSCs | suppressed the T-cell population | severe body weight loss and diarrhea | depleted T cells in lymphatic organs, blood circulation, and bone marrow | around 9 days |  | 
2 | O=C(/C=C/c1ccc(/C=C/C(=O)Nc2ccc(C3=NCCN3)cc2)cc1)Nc1ccc(C2=NCCN2)cc1 [GW4869] |  |  |  |  |  |  |  | neutralized | neutralized
